Measured values published in article PMC6511944 (Journal of Medicinal Chemistry, 2019).
“Also recorded” adds a separate entry of the source.

Columns and labels:
RAW 264.7 macrophages = assay: protection of RAW 264.7 macrophages from LPS-induced cytotoxicity; conditions: LPS 100 μg/mL, MTS assay
[1] = system: lipid peroxidation in RAW 264.7 cells; assay: lipid peroxidation by BODIPY 581/591 C11 staining and FACS in RAW 264.7 cells; format: cell-based, murine; conditions: 5 μM, LPS/IFNγ 10 ng/mL of each, 24 h
15-LOX-1 = target: T1, 15-LOX-1 (Homo sapiens, UniProt P16050); format: biochemical
T1 sequence (P16050 1-662): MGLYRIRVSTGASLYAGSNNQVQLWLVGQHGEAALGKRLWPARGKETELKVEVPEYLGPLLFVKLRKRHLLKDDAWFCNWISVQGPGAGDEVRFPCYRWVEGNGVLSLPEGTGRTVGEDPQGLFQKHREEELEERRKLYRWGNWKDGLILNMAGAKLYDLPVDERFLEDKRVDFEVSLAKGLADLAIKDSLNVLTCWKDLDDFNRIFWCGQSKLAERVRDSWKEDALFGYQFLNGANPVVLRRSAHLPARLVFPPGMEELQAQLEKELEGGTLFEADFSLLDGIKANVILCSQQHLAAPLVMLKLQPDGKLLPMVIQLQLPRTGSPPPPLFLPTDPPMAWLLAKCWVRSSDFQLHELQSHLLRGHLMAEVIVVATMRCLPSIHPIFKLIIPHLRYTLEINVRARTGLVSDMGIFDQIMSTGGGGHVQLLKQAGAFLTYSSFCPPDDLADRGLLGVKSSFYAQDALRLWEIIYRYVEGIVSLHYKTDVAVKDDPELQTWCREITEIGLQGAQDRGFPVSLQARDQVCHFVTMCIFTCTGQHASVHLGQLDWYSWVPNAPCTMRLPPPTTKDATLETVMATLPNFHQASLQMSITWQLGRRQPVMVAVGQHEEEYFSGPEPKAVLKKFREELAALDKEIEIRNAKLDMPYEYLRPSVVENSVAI

NF-κB = assay: RAW-Blue NF-κB reporter gene assay; format: cell-based, murine; conditions: RAW-Blue macrophages, 0.2, 1 and 5 μM, LPS/IFNγ 10 ng/mL of each
NO production = assay: nitric oxide; format: cell-based, murine; conditions: RAW 264.7 cells, 0.2, 1 and 5 μM, LPS/IFNγ 10 ng/mL of each
iNOS = format: cell-based, murine; conditions: 5 μM, RAW 264.7 macrophages activated by LPS and IFNγ (10 ng/mL of each)

CC(c1cc2ccccc2s1)N(O)C(N)=O (stereo not drawn) [Zileuton]
effect on viability of LPS-treated RAW 264.7 macrophages, in words (RAW 264.7 macrophages): comparably improved the viability

c1ccc2c(c1)SCc1c-2[nH]c2ccccc12 [PD-146176, reference compound]
effect on the boost of lipid peroxides [1]: significantly attenuated

CCCNC(=O)c1[nH]c2cc(Cl)ccc2c1CN(C)C [Compound 13, 6-Chloro-3-((dimethylamino)methyl)-N-propyl-1H-indole-2-carboxamide]
potency against 15-LOX-1, in words (15-LOX-1): complete loss in potency

CCOC(=O)c1[nH]c2cc(Cl)ccc2c1/C=C/C(=O)NCc1ccccc1OC [Compound 9c, Ethyl (E)-6-Chloro-3-(3-((2-methoxybenzyl)amino)-3-oxoprop-1-en-1-yl)-1H-indole-2-carboxylate]
effect on viability of LPS-treated RAW 264.7 macrophages, in words (RAW 264.7 macrophages): stronger, dose-dependent effects
inhibition of NF-κB transcriptional activation (NF-κB): significant but not complete inhibition
effect on the boost of lipid peroxides ([1]; listed as 9c (i472)): significantly attenuated; also recorded: clear reduction back to baseline levels
inhibition of NO production (total nitrate/nitrite) (NO production): dose-dependent inhibition
downregulation of iNOS gene expression (iNOS): approximately 50%

CCOC(=O)c1[nH]c2cc(Cl)ccc2c1C(=O)C[C@@H](C)CCCC(C)C [Eleftheriadis-14d]
effect on viability of LPS-treated RAW 264.7 macrophages, in words (RAW 264.7 macrophages): comparably improved the viability
